For 25 compounds, IC50 results are on record in US9303016B2, “Derivatives of aza adamantane and uses thereof” (CONNEXIOS LIFE SCIENCES PVT. LTD., priority 2011, dated 2016).

pIC50: −log10 of the molar value. Bounds are passed on as bounds.

T1 sequence (P28845 whole entry): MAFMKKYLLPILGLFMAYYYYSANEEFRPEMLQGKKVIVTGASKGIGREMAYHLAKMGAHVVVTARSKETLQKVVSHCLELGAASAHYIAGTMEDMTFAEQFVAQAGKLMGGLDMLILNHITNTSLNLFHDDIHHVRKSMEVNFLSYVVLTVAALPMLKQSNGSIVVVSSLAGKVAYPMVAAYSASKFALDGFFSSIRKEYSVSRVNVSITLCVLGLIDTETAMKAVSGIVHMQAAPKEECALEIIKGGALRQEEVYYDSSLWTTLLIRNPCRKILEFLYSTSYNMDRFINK

The assay concerns the target T1, human full length HSD11β1 (Homo sapiens, UniProt P28845).
T1 construct: transient expression of human full length HSD11β1 expression vector; host or cells: CHO cells, transient transfection
The assay can be described thus: In Vitro HSD11β1 Inhibition Assay. The class given is cell-based. Particulars: CHO cells transiently expressing human HSD11β1; 200 nM cortisone+500 uM NADPH overnight; cortisone to cortisol by LC/MS-MS; read-out: 11βHSD1 (IC50). An outline of the steps:
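Whole-cell assay in CHO cells transiently transfected with full-length human HSD11β1, re-seeded 24 h after transfection. Cells incubated overnight with 200 nM cortisone plus 500 uM NADPH, with or without inhibitor. Cortisone-to-cortisol conversion measured by LC/MS-MS; IC50 (nM) from an 8-point log concentration-inhibition curve.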
Usually pIC50 stands for the negative decadic logarithm of the IC50, by convention in mol/L. With `CC(CC(=O)N1C2CC3CC1CC(O)(C3)C2)c1c[nH]c2cc(F)ccc12` (single isomer, unassigned) [Compound 97, 3-(6-fluoro-1H-indol-3-yl)-1-(5-hydroxy-2-azatricyclo[3.3.1.1^3,7]dec-2-yl)butan-1-one], the pIC50 was below 6.60.

Consider `CC(CC(=O)N1C2CC3CC1CC(CC(=O)O)(C3)C2)c1c[nH]c2cccc(C3CC3)c12` (single isomer, unassigned) [Compound 156, {2-[3-(4-cyclopropyl-1H-indol-3-yl)butanoyl]-2-azatricyclo[3.3.1.1^3,7]dec-5-yl}acetic acid], for which the pIC50 is below 6.60.

`CC(CC(=O)N1C2CC3CC1CC(CC(=O)O)(C3)C2)c1c[nH]c2cccc(-c3cccs3)c12` (stereo not shown) [Compound 154, (2-{3-[4-(thiophen-2-yl)-1H-indol-3-yl]butanoyl}-2-azatricyclo[3.3.1.1^3,7]dec-5-yl)acetic acid]: the negative logarithm of the IC50 (pIC50) is below 6.60.

For `COC12CC3CC(C1)N(C(=O)CC(C)c1c[nH]c4cccc(F)c14)C(C3)C2` (single isomer, unassigned) [Example 31, 3-(4-fluoro-1H-indol-3-yl)-1-(5-methoxy-2-azatricyclo[3.3.1.1^3,7]dec-2-yl)butan-1-one], the pIC50 is above 7.00.

On to `CC(CC(=O)N1C2CC3CC1CC(O)(C3)C2)c1c[nH]c2ncc(C3CC3)c(C3CC3)c12` (stereo not shown) [Compound 201, 3-(4,5-dicyclopropyl-1H-pyrrolo[2,3-b]pyridin-3-yl)-1-(5-hydroxy-2-azatricyclo[3.3.1.1^3,7]dec-2-yl)butan-1-one], for which the negative logarithm of the IC50 (pIC50) was below 6.60.

Regarding `O=C(CCc1c[nH]c2cccc(C3CC3)c12)N1C2CC3CC1CC(O)(C3)C2` [Compound 126, 3-(4-cyclopropyl-1H-indol-3-yl)-1-(5-hydroxy-2-azatricyclo[3.3.1.1^3,7]dec-2-yl)propan-1-one], the pIC50 was above 7.00.

With `CC(CC(=O)N1C2CC3CC1CC(C#N)(C3)C2)c1c[nH]c2ncc(Cl)cc12` (stereo not shown) [Compound 137, 2-[3-(6-chloro-1H-pyrrolo[2,3-b]pyridin-3-yl)butanoyl]-2-azatricyclo[3.3.1.1^3,7′]decane-5-carbonitrile], the negative-log IC50 (pIC50) was below 6.60.

Turning to `CC(C)C(CC(=O)N1C2CC3CC1CC(O)(C3)C2)c1c[nH]c2ncccc12` (stereo not shown) [Compound 90, 1-(5-hydroxy-2-azatricyclo[3.3.1.1^3,7]dec-2-yl)-4-methyl-3-(1H-pyrrolo[2,3-b]pyridin-3-yl)pentan-1-one], the pIC50 was below 6.60.

In the case of `Cc1cccc2[nH]cc(C(C)CC(=O)N3C4CC5CC3CC(C#N)(C5)C4)c12` (stereo not shown) [Example 70, 2-[3-(4-methyl-1H-indol-3-yl)butanoyl]-2-azatricyclo[3.3.1.1^3,7]decane-5-carbonitrile], the negative logarithm of the IC50 (pIC50) is 6.70 to 6.82.

Turning to `O=C(O)CC12CC3CC(C1)N(C(=O)CC(c1cccs1)c1c[nH]c4cccc(F)c14)C(C3)C2` (stereo not shown) [Compound 159, {2-[3-(4-fluoro-1H-indol-3-yl)-3-(thiophen-2-yl)propanoyl]-2-azatricyclo[3.3.1.1^7]dec-5-yl}acetic acid], the pIC50 was 6.82 to 7.00.

On to `O=C(CC(c1ccccc1)c1c[nH]c2cc(Cl)ccc12)N1C2CC3CC1CC(C(=O)O)(C3)C2` (stereo not shown) [Compound 134, 2-[3-(6-chloro-1H-indol-3-yl)-3-phenylpropanoyl]-2-azatricyclo[3.3.1.1^3,7]decane-5-carboxylic acid], for which the pIC50 was 6.70 to 6.82.

As to `Cc1ccc2[nH]cc(C(C)CC(=O)N3C4CC5CC3CC(O)(C5)C4)c2c1C` (stereo not shown) [Compound 164, 3-(4,5-dimethyl-1H-indol-3-yl)-1-(5-hydroxy-2-azatricyclo[3.3.1.1^3,7]dec-2-yl)butan-1-one], the negative-log IC50 (pIC50) is 6.82 to 7.00.

In the case of `CC(CC(=O)N1C2CC3CC1CC(Br)(C3)C2)c1c[nH]c2ccc(OS(=O)(=O)C(F)(F)F)cc12` (stereo not shown) [Compound 225, 3-(4-(5-bromo-2-azaadamantan-2-yl)-4-oxobutan-2-yl)-1H-indol-5-yl trifluoromethanesulfonate], the pIC50 is below 6.60.

Consider `CC(C)C(CC(=O)N1C2CC3CC1CC(O)(C3)C2)c1c[nH]c2cccc(F)c12` (stereo not shown) [Example 25, 3-(4-fluoro-1H-indol-3-yl)-1-(5-hydroxy-2-azatricyclo[3.3.1.1^3,7]dec-2-yl)-4-methylpentan-1-one], for which the negative logarithm of the IC50 (pIC50) is below 6.60.

Regarding `CC(CC(=O)N1C2CC3CC1CC(C(=O)O)(C3)C2)c1c[nH]c2cccc(-c3ccc(F)cc3)c12` (stereo not shown) [Example 62, 2-{3-[4-(4-fluorophenyl)-1H-indol-3-yl]butanoyl}-2-azatricyclo[3.3.1.1^3,7]decane-5-carboxylic acid], the pIC50 is below 6.60.

As for `CC(CC(=O)N1C2CC3CC1CC(C(N)=O)(C3)C2)c1nc2ccc(Cl)cc2s1` (stereo not shown) [Compound 196, 2-[3-(6-chloro-1,3-benzothiazol-2-yl)butanoyl]-2-azatricyclo[3.3.1.1^3,7]decane-5-carboxamide], the pIC50 was below 6.60.

Turning to `Cc1ccc2[nH]cc(C(C)CC(=O)N3C4CC5CC3CC(O)(C5)C4)c2c1C` (single isomer, unassigned) [Compound 169, 3-(4,5-dimethyl-1H-indol-3-yl)-1-(5-hydroxy-2-azatricyclo[3.3.1.1^3,7]dec-2-yl)butan-1-one], the pIC50 is above 7.00.

`O=C(CC(c1ccccc1)c1nc2ccccc2s1)N1C2CC3CC1CC(F)(C3)C2` (stereo not shown) [Compound 108, 3-(1,3-benzothiazol-2-yl)-1-(5-fluoro-2-azatricyclo[3.3.1.1^3,7]dec-2-yl)-3-phenylpropan-1-one]: the negative logarithm of the IC50 (pIC50) was below 6.60.

As to `CC(CC(=O)N1C2CC3CC1CC(O)(C3)C2)c1c[nH]c2cc(Cl)ccc12` (stereo not shown) [Example 69, 3-(6-chloro-1H-indol-3-yl)-1-(5-hydroxy-2-azatricyclo[3.3.1.1^3,7]dec-2-yl)butan-1-one], the pIC50 was 6.82 to 7.00.

Take `CC(CC(=O)N1C2CC3CC1CC(O)(C3)C2)c1c[nH]c2cccc(-c3ccsc3)c12` (stereo not shown) [Compound 187, 1-(5-hydroxy-2-azatricyclo[3.3.1.1^3,7]dec-2-yl)-3-[4-(thiophen-3-yl)-1H-indol-3-yl]butan-1-one]: the negative logarithm of the IC50 (pIC50) was 6.82 to 7.00.

As to `CC(CC(=O)N1C2CC3CC1CC(O)(C3)C2)c1c[nH]c2ccccc12` (single isomer, unassigned) [Example 22, 1-(5-hydroxy-2-azatricyclo[3.3.1.1^3,7]dec-2-yl)-3-(1H-indol-3-yl)butan-1-one], the pIC50 was below 6.60.

As for `CC(CC(=O)N1C2CC3CC1CC(CC(=O)O)(C3)C2)c1c[nH]c2cccc(C3CC3)c12` (stereo not shown) [Compound 152, {2-[3-(4-cyclopropyl-1H-indol-3-yl)butanoyl]-2-azatricyclo[3.3.1.1^3,7]dec-5-yl}acetic acid], the pIC50 was 6.82 to 7.00.

Consider `Cc1cccc2c(C(C)CC(=O)N3C4CC5CC3CC(O)(C5)C4)c[nH]c12` (stereo not shown) [Compound 78, 1-(5-hydroxy-2-azatricyclo[3.3.1.1^3,7]dec-2-yl)-3-(7-methyl-1H-indol-3-yl)butan-1-one], for which the pIC50 was below 6.60.

Regarding `Cc1[nH]c2cccc(Cl)c2c1C(C)CC(=O)N1C2CC3CC1CC(O)(C3)C2` (stereo not shown) [Example 60, 3-(4-chloro-2-methyl-1H-indol-3-yl)-1-(5-hydroxy-2-azatricyclo[3.3.1.1^3,7]dec-2-yl)butan-1-one], the pIC50 was below 6.60.

With `CC(CC(=O)N1C2CC3CC1CC(O)(C3)C2)c1c[nH]c2ncccc12` (stereo not shown) [Compound 86, 1-(5-hydroxy-2-azatricyclo[3.3.1.1]dec-2-yl)-3-(1H-pyrrolo[2,3-b]pyridin-3-yl)butan-1-one], the pIC50 was below 6.60.
